Assay results from the NIST ThermoML archive (doi:10.1021/acs.jced.9b00021).
Several values for one entry are separate records, joined by “and”; a condition that tells them apart may be missing. Identical values can stand only once.

Settings: 400 kPa, Liquid, Concentric cylinders viscometry

CN(CCO)CCO [N-methyldiethanolamine]
Settings | viscosity
298.15 K | 73.1 mPa·s
303.15 K | 55.89 mPa·s
308.15 K | 43.45 mPa·s
313.15 K | 34.15 mPa·s
318.15 K | 27.15 mPa·s
323.15 K | 21.82 mPa·s
328.15 K | 17.79 mPa·s
333.15 K | 14.63 mPa·s
338.15 K | 12.2 mPa·s
343.15 K | 10.21 mPa·s
348.15 K | 8.61 mPa·s and 8.6 mPa·s
353.15 K | 7.31 mPa·s
358.15 K | 6.28 mPa·s and 6.29 mPa·s
363.15 K | 5.43 mPa·s
368.15 K | 4.72 mPa·s
373.15 K | 4.12 mPa·s
